# The Bradley open melting point set (2014)
# Structures can show the parent of a compound that is named as a salt.
row,Compound,melting point
1,c1ccc(Nc2ccccc2)cc1 [Diphenylamine],53 °C
2,O=c1[nH]c2ccccc2n1CCCN1CCC(n2c(=O)[nH]c3cc(Cl)ccc32)CC1 [Domperidone],242 °C
3,COc1cccc2c1C(=O)c1c(O)c3c(c(O)c1C2=O)C[C@@](O)(C(=O)CO)C[C@@H]3O[C@H]1C[C@H](N)[C@H](O)[C@H](C)O1 [Doxorubicin],204 °C
4,CC[C@H]1OC(=O)[C@H](C)[C@@H](O[C@H]2C[C@@](C)(OC)[C@@H](O)[C@H](C)O2)[C@H](C)[C@@H](O[C@@H]2O[C@H](C)C[C@H](N(C)C)[C@H]2O)[C@](C)(O)C[C@@H](C)C(=O)[C@H](C)[C@@H](O)[C@]1(C)O [Erythromycin],191 °C
5,C[C@]12CC[C@@H]3c4ccc(O)cc4CC[C@H]3[C@@H]1CC[C@@H]2O [Estradiol],176 °C
6,C[C@]12CC[C@@H]3c4ccc(O)cc4CC[C@H]3[C@@H]1C[C@@H](O)[C@@H]2O [Estriol],282 °C
7,O=C(Cl)C(=O)Cl [Ethanedioyl dichloride],-9 °C
8,COc1cc([C@@H]2c3cc4c(cc3[C@@H](O[C@@H]3O[C@@H]5CO[C@@H](C)O[C@H]5[C@H](O)[C@H]3O)[C@H]3COC(=O)[C@H]23)OCO4)cc(OC)c1O [Etoposide],244 °C
9,O=C1OC2(c3ccc(O)cc3Oc3cc(O)ccc32)c2ccccc21 [Fluorescein],315 °C
10,CC(C(=O)O)c1ccc(-c2ccccc2)c(F)c1 (stereo not given) [Flurbiprofen] [listing 1 of 2 here],110 °C
11,CC(C(=O)O)c1ccc(-c2ccccc2)c(F)c1 (stereo not given) [Flurbiprofen] [listing 2 of 2 here],110 °C
12,O=C(O)/C=C/C(=O)O [Fumaric Acid],287 °C
13,NS(=O)(=O)c1cc(C(=O)O)c(NCc2ccco2)cc1Cl [Furosemide],206 °C
14,Nc1nc2c(ncn2[C@@H]2O[C@@H](CO)[C@H](O)[C@H]2O)c(=O)[nH]1 [Guanosine],239 °C
15,Clc1c(Cl)c(Cl)c(Cl)c(Cl)c1Cl [Hexachlorobenzene] [listing 1 of 2 here],230 °C
16,Clc1c(Cl)c(Cl)c(Cl)c(Cl)c1Cl [Hexachlorobenzene] [listing 2 of 2 here],228 °C
17,FC(F)(F)C(F)(F)F [Hexafluoroethane],-100 °C
18,Cc1c(C)c(C)c(C)c(C)c1C [Hexamethylbenzene],167 °C
19,C[C@]12CCC(=O)C=C1CC[C@@H]1[C@@H]2[C@@H](O)C[C@@]2(C)[C@H]1CC[C@]2(O)C(=O)CO [Hydrocortisone] [listing 1 of 2 here],218 °C
20,C[C@]12CCC(=O)C=C1CC[C@@H]1[C@@H]2[C@@H](O)C[C@@]2(C)[C@H]1CC[C@]2(O)C(=O)CO [Hydrocortisone] [listing 2 of 2 here],220 °C
21,OO [Hydrogen peroxide],-40 °C
22,O=c1[nH]c(=O)n([C@H]2C[C@H](O)[C@@H](CO)O2)cc1I [Idoxuridine],165 °C
23,CCC1(CCC(C)C)C(=O)NC(=O)NC1=O [Inmetal],156 °C
24,[O-][I+2]([O-])O [Iodic acid],110 °C
25,IC(I)I [Iodoform],122 °C
26,CC(C)C [Isobutane],-160 °C
27,O=C=N/C1CCCCC1 [Isocyanatocyclohexane],-80 °C

row,Compound,melting point
1,CC(=O)N1CCN(c2ccc(OC[C@@H]3CO[C@@](Cn4ccnc4)(c4ccc(Cl)cc4Cl)O3)cc2)CC1 [Ketoconazole],146 °C
2,O=C[C@H](O)[C@H](O)[C@@H](O)CO [L-lyxose],110 °C
3,OC[C@@H]1OC(O)[C@@H](O)[C@H]1O (stereo partly drawn) [L-ribose],87 °C
4,O=C(O)[C@H](O)[C@@H](O)C(=O)O [L-tartaric acid],169 °C
5,c1ccc([C@H]2CN3CCSC3=N2)cc1 [Levamisole],264 °C
6,C#C[C@]1(O)CC[C@H]2[C@@H]3CCC4=CC(=O)CC[C@@H]4[C@H]3CC[C@@]21CC [Levonorgestrel],236 °C
7,O=C1Nc2ccc(Cl)cc2C(c2ccccc2Cl)=NC1O (stereo not given) [Lorazepam],167 °C
8,OCC(O)C(O)C(O)C(O)CO (stereo not given) [Mannitol],168 °C
9,NC(Cc1ccc(N(CCCl)CCCl)cc1)C(=O)O (stereo not given) [Melphalan],182 °C
10,CCCC(C)(COC(N)=O)COC(N)=O [Meprobamate],105 °C
11,Cc1cc(C)cc(C)c1 [Mesitylene],-45 °C
12,COCC(=O)N(c1c(C)cccc1C)C(C)C(=O)OC (stereo not given) [Metalaxyl],72 °C
13,CS [Methanethiol],-121 °C
14,Cn1cc[nH]c1=S [Methimazole],146 °C
15,COC=O [Methyl formate],-100 °C
16,CC1CCCCC1 [Methylcyclohexane],-127 °C
17,c1ccc(P(CP(c2ccccc2)c2ccccc2)c2ccccc2)cc1 [Methylenebis(diphenylphosphine)],121 °C
18,Cc1ncc2n1-c1ccc(Cl)cc1C(c1ccccc1F)=NC2 [Midazolam],159 °C
19,Nc1cc(N2CCCCC2)nc(N)[n+]1[O-] [Minoxidil],248 °C
20,CN(C)C(=O)Nc1ccc(Cl)cc1 [Monuron],174 °C
21,COc1c(N2C[C@@H]3CCCN[C@@H]3C2)c(F)cc2c(=O)c(C(=O)O)cn(C3CC3)c12 [Moxifloxacin],240 °C
22,O=C(N[C@@H](Cc1c[nH]c2ccccc12)C(=O)O)OCc1ccccc1 [N(alpha)-benzyloxycarbonyl-l-tryptophan],124 °C
23,"Cc1cc(-c2ccc(NC=O)c(C)c2)ccc1NC=O [N,N'-(3,3'-dimethylbiphenyl-4,4'-diyl)diformamide]",268 °C
24,"O=CNC1C/C=C/CC(NC=O)C/C=C/C1 (stereo not given) [N,N'-(3E,8E)-cyclodeca-3,8-diene-1,6-diyldiformamide]",234 °C
25,"O=[N+]([O-])c1cc(C=Nc2ccccc2)ccc1C=Nc1ccccc1 [N,N'-[(2-nitrobenzene-1,4-diyl)di(E)methylylidene]dianiline]",134 °C
26,"Oc1ccccc1C=NCCCN=Cc1ccccc1O [N,N'-bis(salicylidene)-1,3-propanediamine]",52 °C

# Now from value to compound:
row,melting point,Compound
1,-35 °C,C=CCCCCCCCCCC [Dodec-1-ene]
2,29 °C,CCCCCCCCCCCCN [Dodecan-1-amine]
3,-9.6 °C,CCCCCCCCCCCC [Dodecane]
4,163 °C,CCc1cc(C(N)=S)ccn1 [Ethionamide]
5,-115 °C,C=COCC [Ethoxyethene]
6,49 °C,CCOC(=O)C(C#N)=Cc1ccccc1 [Ethyl 2-Cyano-3-Phenylacrylate]
7,54 °C,"CCOC(=O)C(C#N)=C(SC)SC [Ethyl 2-cyano-3,3-bis(methylsulfanyl)acrylate]"
8,116 °C,CCOC(=O)c1ccc(O)cc1 [Ethyl 4-hydroxybenzoate]
9,87 °C,CCOC(=O)c1cc(C)[nH]n1 [Ethyl 5-methyl-1H-pyrazole-3-carboxylate]
10,108 °C,CCOC(=O)Cn1cnc2ncnc(Cl)c21 [Ethyl (6-chloro-7H-purin-7-yl)acetate]
11,-84 °C,CCOC(C)=O [Ethyl acetate]
12,-34 °C,CCOC(=O)c1ccccc1 [Ethyl benzoate]
13,-75 °C,C=C(C)C(=O)OCC [Ethyl methacrylate]
14,132 °C,CN(C)C(=O)Nc1ccccc1 [Fenuron]
15,170 °C,COc1ccc(Cl)cc1C(=O)NCCc1ccc(S(=O)(=O)NC(=O)NC2CCCCC2)cc1 [Glibenclamide]
16,80 °C,O=C(O)CO [Glycol acid]
17,258 °C,NCC(=O)NCC(=O)O [Glycylglycine]
18,149 °C,COc1ccc(C(C)=CC(=O)O)c(OC)c1 [Hepadial]
19,57 °C,CCCCCCCCCCCCCCCCCO [Heptadecan-1-ol]
20,-39 °C,CCCCC(=O)CC [Heptan-3-one]
21,-43 °C,CCCCCCC=O [Heptanal]
22,-140 °C,C=CCCCC [Hex-1-ene]
23,50 °C,CCCCCCCCCCCCCCCCO [Hexadecan-1-ol]
24,76 °C,CC(C)Cc1ccc(C(C)C(=O)O)cc1 (stereo not given) [Ibuprofen]

row,melting point,Compound
1,159 °C,COc1ccc2c(c1)c(CC(=O)O)c(C)n2C(=O)c1ccc(Cl)cc1 [Indomethacin]
2,180 °C,CCCCC1=NC2(CCCC2)C(=O)N1Cc1ccc(-c2ccccc2-c2nnn[nH]2)cc1 [Irbesartan]
3,-46 °C,CC(C)C(=O)O [Isobutyric Acid]
4,171 °C,NNC(=O)c1ccncc1 [Isoniazid]
5,171 °C,NNC(=O)c1ccncc1 [Isonicotinohydrazide]
6,-160 °C,CCC(C)C [Isopentane]
7,-89.5 °C,CC(C)O [Isopropyl Alcohol]
8,114 °C,CCCCCCCCCCCCCCCC(=O)OC[C@H](O)[C@H]1OC(=O)C(O)=C1O [L-ascorbic acid 6-palmitate]
9,315 °C,CC(C)[C@H](N)C(=O)O [L-valine]
10,196 °C,CC(CCc1ccccc1)NCC(O)c1ccc(O)c(C(N)=O)c1 (stereo not given) [Labetalol]
11,236 °C,N[C@@H](Cc1cc(I)c(Oc2cc(I)c(O)c(I)c2)c(I)c1)C(=O)O [Levothyroxine]
12,174 °C,CC[C@H](C)C(=O)O[C@H]1C[C@@H](C)C=C2C=C[C@H](C)[C@H](CC[C@@H]3C[C@@H](O)CC(=O)O3)[C@H]21 [Lovastatin]
13,72 °C,CCCCOC(=O)c1ccc(O)cc1 [Mekkings B]
14,254 °C,Cc1cnc(NC(=O)C2=C(O)c3ccccc3S(=O)(=O)N2C)s1 [Meloxicam]
15,114 °C,COC(=O)c1ccc(N)cc1 [Methyl 4-aminobenzoate]
16,61 °C,COC(=O)c1ccc(C=O)cc1 [Methyl 4-formylbenzoate]
17,-98 °C,COC(C)=O [Methyl acetate]
18,-71 °C,CCCCCC(=O)OC [Methyl hexanoate]
19,202 °C,COc1ccc(OC)c(C(O)CNC(=O)CN)c1 (stereo not given) [Midodrine]
20,104 °C,CCCC(=O)NNc1ccccc1 [N'-phenylbutanehydrazide]
21,72 °C,"CCCCNC(=O)NCCCC [N,N'-di-n-butylurea]"
22,-115 °C,"CCN(CC)CC [N,N-Diethylethanamine]"
23,82 °C,"CCN(CC)c1ccc(N=O)cc1 [N,N-diethyl-4-nitrosoaniline]"
